How the values were obtained:
Format in all cases: in vitro ADME
[1] = Microsomal stability (human microsomes); conditions: 0.5 mg/mL protein, 1 mM NADPH, 37° C.; for Averages. Mic Half Life Human: 1 μM test compound; for half-life at 1 μM: pH 7.4, 1 μM test compound, read-out: Averages. Mic Half Life Human
Method: Example 28—Microsomal Stability
Microsomes (rat and human) were obtained from Bioreclamation. Test compound stock solutions in DMSO (10 mM) were diluted with DMSO to 2 mM. Further dilution was completed to achieve a 100 μM stock (final concentrations; 91.5% Acetonitrile: 8.5% DMSO). Final test compound concentration in incubation was 1 μM (<0.1% DMSO). The following probe substrates were used: verapamil, propranolol, metoprolol and phenacetin (rat) at a final incubation concentration of 1 μM. Assay buffer—Solution 1: 17.4 g potassium phosphate dibasic anhydrous (K2HPO4, 0.1 M) dissolved in 1 L deionised water. Solution 2: 13.6 g potassium phosphate monobasic anhydrous (KH2PO4, 0.1 M) dissolved in 1 L deionised water. Potassium phosphate solutions 1 and 2 were combined to form a pH 7.42 solution at 37° C. pH 7.4 with 2 mM magnesium chloride. NADPH (10 mM)—diluted in deionised water. Frozen microsomes were thawed at 37° C. Microsomes were diluted in assay buffer to achieve a final protein concentration of 0.5 mg/mL and 1 mM NADPH. The following procedure was completed on a Perkin Elmer Janus robotic platform in 96 well format: The microsomal incubation plate was transferred to a heater shaker at 300 rpm and solution heated to 37° C. for 10 min pre-warm. A no co-factor control at 0 and 45 min and one replicates of each test compound was included in every assay. Microsomes were incubated at 37° C., on a shaker set at 300 rpm throughout the assay. At each timepoint (0, 5, 15, 30, 45 min) 50 μL of sample was removed from the 96-well and added to 200 μL of quench solution (acetonitrile containing 0.1% formic acid and imipramine/labetalol, 200 nM). Samples were diluted 1:1 with water using the Janus Robot and analysed by LC-MS/MS.

[2] = Hepatic stability (rat cryopreserved hepatocytes); conditions: pH 7.4, 1 μM test compound, 1×10^6 cells/mL, 37° C., read-out: Averages. Hep Half Life Rat
Method: (§1) Example 29—Hepatic Stability
(§2) Cryopreserved hepatocytes (rat and human) were obtained from Bioreclamation. Test compound stock solutions in DMSO (10 mM) were diluted with DMSO to 4 mM. Further dilution was completed to achieve a 100 μM stock (5 μL of 4 mM in 195 μL of 50:50 DMSO:hepatocyte buffer). Final test compound concentration in incubation was 1 μM. The following probe substrates were used: testosterone and carbamazepine at a final incubation concentration of 1 μM. Hepatocyte buffer was prepared (Williams E media containing phenol red and Glutamax™, 15 mM HEPES, warmed to 37° C., pH7.4 with NaOH). Cells were removed from liquid nitrogen, thawed in a waterbath, decanted into 50 mL of pre-warmed Cryopreserved Hepatocyte Recovery Media (LifeTechnologies) and centrifuged. Supernatant fraction was removed, cells were re-suspended in hepatocyte buffer and counted by trypan blue exclusion. Cell viability of >80% was required for all assays. Cells were re-suspended to 1×10^6/mL and 198 μL cell suspension added to each 96-well. 2 μL of 100 μM compound stock solution was added to relevant wells to initiate the incubation. A no cell control and two replicates of each test compound was included in every assay. Cells were incubated at 37° C., on a shaker set at 300 rpm. At each timepoint (0, 15, 30, 45, 60, 90 min) 20 μL of sample was removed from the 96-well and added to 80 μL of quench solution (acetonitrile containing 0.1% formic acid and imipramine/labetalol, 200 nM). Samples were diluted 1:1 with water using the Janus Robot and analysed by LC-MS/MS.

[3] = Hepatic stability (human cryopreserved hepatocytes); conditions: 1×10^6 cells/mL, 37° C.; for Averages. Hep Half Life Human: 1 μM test compound; for half-life at 1 μM: cryopreserved hepatocytes, pH 7.4, 1 μM test compound, read-out: Averages. Hep Half Life Human
Method: as §1, §2

Averages. Mic Half Life Human [1]	half-life at 1 μM [2]	Averages. Hep Half Life Human [3]	half-life at 1 μM [1]	half-life at 1 μM [3]	Structure (SMILES)
138 min	6 min	240 min			CCn1c(CNC(=O)c2nc(Br)cnc2N)[n+](C)c2ccc(Cl)cc21.O=CO.O=C[O-] [Example 11, 2-{[(3-amino-6-bromopyrazin-2-yl)formamido]methyl}-6-chloro-1-ethyl-3-methyl-1H-1,3-benzodiazol-3-ium formic acid formate]
	16 min		22 min	129 min	CCn1c(CNC(=O)c2nc(C)cnc2N)[n+](C)c2ccc(OC)cc21.[I-] [Example 7, 2-{[(3-amino-6-methylpyrazin-2-yl)formamido]methyl}-1-ethyl-6-methoxy-3-methyl-1H-1,3-benzodiazol-3-ium iodide]
138 min	28 min			205 min	CCn1c(CNC(=O)c2nc(Br)cnc2N)[n+](C)c2ccc(OC(F)(F)F)cc21.O=C[O-] [Example 14, 2-{[(3-amino-6-bromopyrazin-2-yl)formamido]methyl}-1-ethyl-3-methyl-6-(trifluoromethoxy)-1H-1,3-benzodiazol-3-ium formate]
	13 min	240 min	89 min		CCn1c(CNC(=O)c2nc(Br)cnc2N)[n+](CCO)c2ccc(OC)cc21.O=C[O-] [Example 3, 2-{[(3-amino-6-bromopyrazin-2-yl)formamido]methyl}-1-ethyl-3-(2-hydroxyethyl)-6-methoxy-1H-1,3-benzodiazol-3-ium formate]
